# Measurements reported in PubChem BioAssay (NCI).
# Several values for one entry are separate records, joined by “and”; a condition that tells them apart may be missing. Identical values can stand only once.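 In this assay, cells in 96-well plates receive the compound at five concentrations for 48 hours. Endpoints are linearly interpolated between the surrounding concentrations. GI50: concentration for 50% inhibition of growth. TGI marks complete inhibition of growth.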
# Tested on: HOP-62 NSCLC
# Assay: growth of human tumour cells (NCI), 48 h
Structure (SMILES),GI50 [µM],TGI [µM]
O=C1C(Cl)=C(Nc2ccccc2O)C(=O)N1Cc1ccccc1,18.5,32.6
CCOc1ccccc1NC(=O)C(C#N)C1=C(Cl)C(=O)c2ccccc2C1=O (configuration not stated),,19.7

# Tested on: HT29 colon
# Assay: growth of human tumour cells (NCI), 48 h
Structure (SMILES),TGI [µM],GI50 [µM]
OCC(O)CNc1ccnc2cc(Cl)ccc12 (configuration not stated),> 100,
Cc1cccc(C(C)C)c1NC(=O)C(=O)C(C(=O)c1ccccc1F)C1OC(=O)c2ccccc21 (configuration not stated),71.7,
Cc1cccc(C)c1NC(=O)C(=O)CC(=O)c1cccc([N+](=O)[O-])c1,> 100,
S=C1SC2=Nc3ccccc3CN2C2=NCCN12,> 100,34.7
CC1=C(c2cc(C(=O)Nc3ccc(Cl)cc3)nc(=S)[nH]2)Sc2ccccc2N1,> 100,
O=C(O)CN(c1ccccc1)S(=O)(=O)c1ccc([N+](=O)[O-])cc1,> 100,
CC1=C(C(=O)NNS(=O)(=O)c2ccc(C)cc2)CC(C(=O)NNS(=O)(=O)c2ccc(C)cc2)=C(C)N1,> 100,
Clc1cc(Cl)cc(Nc2ccc3cc(OCCCN4CCOCC4)ccc3n2)c1,3.74,1.56
[F][Sn]([F])([c]1ccccc1)[c]1ccccc1,3.85,1.78
N#CC(C(=O)CCC(=O)Nc1cccc(C(F)(F)F)c1)c1ccc(Cl)cc1 (configuration not stated),> 100,
Cc1cc(C(C)(C)C)cc(Cc2cc(C(C)(C)C)cc(Cc3cc(C(C)(C)C)cc(C)c3O)c2O)c1O,24,
COC(=O)/C(=C\c1ccc(N(CCC#N)CCC#N)cc1)NC(=O)c1cc([N+](=O)[O-])ccc1Cl,> 100,
COC1=C(Br)C(=O)c2nc(C)ccc2C1=O,34.9,
COc1ccc2c3c(Nc4ccc(/C(C)=N/O)cc4)[nH]c4ccccc4c-3c(N=O)c2c1,33.7,19.6
C/C(CCn1[nH]c(=O)ccc1=O)=N\OCCCc1ccccc1,> 100,
COC(=O)c1cccc2cccc(C(=O)Nc3ccc(Cl)cc3)c12,> 100,
N.N.NCCCCCCCCCN.O=C([O-])CC(=O)[O-].O=C([O-])CC(=O)[O-].[Pt+4].[Pt+4],> 100,> 100
CC(=O)OC1C2CCC1C1C2C2(Cl)C(Cl)=C(Cl)C1(Cl)C2(Cl)Cl (configuration not stated),28,
CC(C(=O)n1c2ccccc2c2ccccc21)N(c1ccccc1)c1ccccc1 (configuration not stated),37.7,
CCOC(=O)Cn1c(=O)n(C)c(=O)c2c1ncn2Cc1ccccc1,> 100,

Structure (SMILES),TGI [µM],GI50 [µM]
CCCCc1c2c(nc3c1CCC/C3=C\c1ccccc1)/C(=C/c1ccccc1)CCC2,> 100,
CC(C)(C)OC(=O)N1N=NC2C1C1CC(OCc3ccccc3)(OCc3ccccc3)C2O1 (configuration not stated),> 100,
O=C1C(=O)N(c2cc(Cl)ccc2Cl)C(=O)C(=O)C1c1nc2ccccc2o1,> 100,
CC1=C(C(=O)Nc2ccccc2)C(c2ccc(C3C(C(=O)Nc4ccccc4)=C(C)NC(C)=C3C(=O)Nc3ccccc3)cc2)C(C(=O)Nc2ccccc2)=C(C)N1,3.77,
CCC(=O)Nc1ccc(N=NN(C)C)cc1,> 100,
O=c1c2ccccc2nc(-c2ccccc2)n1NC(=S)Nc1ccccc1,> 100,
C[C@]12CC[C@@H]3c4ccc(O)c([N+](=O)[O-])c4CC[C@H]3[C@@H]1CC[C@@H]2NS(=O)(=O)c1cccc(Br)c1,3.92,1.94
CCOC(=O)/C(=C/c1cccc(C#N)c1)N(CC)CC,> 100,
N#Cc1ccc(OC(=O)Nc2ccc(Cl)c(Cl)c2)cc1,28.6,3.35
O=S1(=O)OCCOS(=O)(=O)C1Cl,> 100,
COc1cc(C2C(C(=O)Nc3cc(F)c(F)cc3F)=C(C)NC(C)=C2C(=O)Nc2cc(F)c(F)cc2F)ccc1O,> 100,
O=c1nc(-c2ccccc2)cc(-c2ccccc2O)[nH]1,> 100,
Oc1ccc(Br)cc1C=Nc1ccc(N=Cc2cc(Br)ccc2O)cc1,> 100,
CCOc1ccccc1NC(=O)C(=O)Cc1nc2ccccc2s1,> 100,
C=CCn1c2c(sc1=S)C(S)N=CN2 (configuration not stated),> 100,
Cc1cccc(N=C2NC(=O)C(CC(=O)Nc3cccc(C)c3C)S2)c1 (configuration not stated),> 100,
CN(C)CCSc1nccc(-c2cc3ccccc3s2)n1,24.3,
O=C(O)CSc1n[nH]c(Cc2ccccc2)n1,> 100,
CCOc1ccccc1NC(=O)C(C#N)C1=C(Cl)C(=O)c2ccccc2C1=O (configuration not stated),,14

# Tested on: NCI-H226 lung
# Assay: growth of human tumour cells (NCI), 48 h
Structure (SMILES),TGI,GI50 [µM]
OCC(O)CNc1ccnc2cc(Cl)ccc12 (configuration not stated),> 100 µM,
Cc1cccc(C(C)C)c1NC(=O)C(=O)C(C(=O)c1ccccc1F)C1OC(=O)c2ccccc21 (configuration not stated),21.5 µM,
Cc1cccc(C)c1NC(=O)C(=O)CC(=O)c1cccc([N+](=O)[O-])c1,> 100 µM,
S=C1SC2=Nc3ccccc3CN2C2=NCCN12,> 100 µM,> 100
O=C(O)CN(c1ccccc1)S(=O)(=O)c1ccc([N+](=O)[O-])cc1,> 100 µM,
CC1=C(C(=O)NNS(=O)(=O)c2ccc(C)cc2)CC(C(=O)NNS(=O)(=O)c2ccc(C)cc2)=C(C)N1,> 100 µM,
Clc1cc(Cl)cc(Nc2ccc3cc(OCCCN4CCOCC4)ccc3n2)c1,> 100 µM,3.76
[F][Sn]([F])([c]1ccccc1)[c]1ccccc1,4.26 µM,2.11
N#CC(C(=O)CCC(=O)Nc1cccc(C(F)(F)F)c1)c1ccc(Cl)cc1 (configuration not stated),> 100 µM,
Cc1cc(C(C)(C)C)cc(Cc2cc(C(C)(C)C)cc(Cc3cc(C(C)(C)C)cc(C)c3O)c2O)c1O,24.6 µM,
COC(=O)/C(=C\c1ccc(N(CCC#N)CCC#N)cc1)NC(=O)c1cc([N+](=O)[O-])ccc1Cl,> 100 µM,
COC1=C(Br)C(=O)c2nc(C)ccc2C1=O,38.2 µM,
COc1ccc2c3c(Nc4ccc(/C(C)=N/O)cc4)[nH]c4ccccc4c-3c(N=O)c2c1,38.3 µM,17
C/C(CCn1[nH]c(=O)ccc1=O)=N\OCCCc1ccccc1,> 100 µM,
COC(=O)c1cccc2cccc(C(=O)Nc3ccc(Cl)cc3)c12,> 100 µM,
N.N.NCCCCCCCCCN.O=C([O-])CC(=O)[O-].O=C([O-])CC(=O)[O-].[Pt+4].[Pt+4],> 100 µM,> 100
CC(=O)OC1C2CCC1C1C2C2(Cl)C(Cl)=C(Cl)C1(Cl)C2(Cl)Cl (configuration not stated),26.7 µM,
CC(C(=O)n1c2ccccc2c2ccccc21)N(c1ccccc1)c1ccccc1 (configuration not stated),47.7 µM,
CCOC(=O)Cn1c(=O)n(C)c(=O)c2c1ncn2Cc1ccccc1,> 100 µM,

Structure (SMILES),TGI,GI50 [µM]
CCCCc1c2c(nc3c1CCC/C3=C\c1ccccc1)/C(=C/c1ccccc1)CCC2,> 100 µM,
CC(C)(C)OC(=O)N1N=NC2C1C1CC(OCc3ccccc3)(OCc3ccccc3)C2O1 (configuration not stated),55.4 µM,
CC1=C(C(=O)Nc2ccccc2)C(c2ccc(C3C(C(=O)Nc4ccccc4)=C(C)NC(C)=C3C(=O)Nc3ccccc3)cc2)C(C(=O)Nc2ccccc2)=C(C)N1,16 µM,
CCC(=O)Nc1ccc(N=NN(C)C)cc1,> 100 µM,
O=c1c2ccccc2nc(-c2ccccc2)n1NC(=S)Nc1ccccc1,> 100 µM,
C[C@]12CC[C@@H]3c4ccc(O)c([N+](=O)[O-])c4CC[C@H]3[C@@H]1CC[C@@H]2NS(=O)(=O)c1cccc(Br)c1,8.53 µM,2.9
CCOC(=O)/C(=C/c1cccc(C#N)c1)N(CC)CC,> 100 µM,
N#Cc1ccc(OC(=O)Nc2ccc(Cl)c(Cl)c2)cc1,> 100 µM,3.8
O=S1(=O)OCCOS(=O)(=O)C1Cl,> 100 µM,
COc1cc(C2C(C(=O)Nc3cc(F)c(F)cc3F)=C(C)NC(C)=C2C(=O)Nc2cc(F)c(F)cc2F)ccc1O,79.5 µM,
O=c1nc(-c2ccccc2)cc(-c2ccccc2O)[nH]1,> 100 µM,
Oc1ccc(Br)cc1C=Nc1ccc(N=Cc2cc(Br)ccc2O)cc1,> 100 µM,
CCOc1ccccc1NC(=O)C(=O)Cc1nc2ccccc2s1,> 100 µM,
C=CCn1c2c(sc1=S)C(S)N=CN2 (configuration not stated),> 100 µM,
Cc1cccc(N=C2NC(=O)C(CC(=O)Nc3cccc(C)c3C)S2)c1 (configuration not stated),> 100 µM,
CN(C)CCSc1nccc(-c2cc3ccccc3s2)n1,38 µM,
O=C(O)CSc1n[nH]c(Cc2ccccc2)n1,> 100 µM,
O=C1C(Cl)=C(Nc2ccccc2O)C(=O)N1Cc1ccccc1,48.8 µM,20.1
CCOc1ccccc1NC(=O)C(C#N)C1=C(Cl)C(=O)c2ccccc2C1=O (configuration not stated),4.49 µM and 19 µM,

# Tested on: NCI-H460 lung
# Assay: growth of human tumour cells (NCI), 48 h
Structure (SMILES),TGI [µM],GI50 [µM]
OCC(O)CNc1ccnc2cc(Cl)ccc12 (configuration not stated),> 100,
Cc1cccc(C(C)C)c1NC(=O)C(=O)C(C(=O)c1ccccc1F)C1OC(=O)c2ccccc21 (configuration not stated),83.9,
Cc1cccc(C)c1NC(=O)C(=O)CC(=O)c1cccc([N+](=O)[O-])c1,> 100,
S=C1SC2=Nc3ccccc3CN2C2=NCCN12,> 100,> 100
CC1=C(c2cc(C(=O)Nc3ccc(Cl)cc3)nc(=S)[nH]2)Sc2ccccc2N1,> 100,
O=C(O)CN(c1ccccc1)S(=O)(=O)c1ccc([N+](=O)[O-])cc1,> 100,
CC1=C(C(=O)NNS(=O)(=O)c2ccc(C)cc2)CC(C(=O)NNS(=O)(=O)c2ccc(C)cc2)=C(C)N1,> 100,
[F][Sn]([F])([c]1ccccc1)[c]1ccccc1,4.97,2.27
N#CC(C(=O)CCC(=O)Nc1cccc(C(F)(F)F)c1)c1ccc(Cl)cc1 (configuration not stated),> 100,
Cc1cc(C(C)(C)C)cc(Cc2cc(C(C)(C)C)cc(Cc3cc(C(C)(C)C)cc(C)c3O)c2O)c1O,21.8,
